In general, thermodynamic solubility refers to solubility found after equilibrating the solid with the medium. As a reminder, the Papp A→B is how fast a substance crosses the layer from the apical side. High values mean fast passage, low ones slow passage. In general, pEC50 refers to the negative decadic logarithm of the EC50, by convention in mol/L. Usually Cmax stands for the maximum level reached in the sampled fluid or tissue. The half-life is how long it takes for the measured level to halve. Usually pIC50 stands for the negative decadic logarithm of the IC50, by convention in mol/L. Broadly, the Tmax is the time at which the peak concentration occurs. Usually AUC stands for concentration integrated over time. Low values mean low exposure, high ones high exposure. For orientation: MRT means a mean duration of stay, worked out from the concentration-time curve.

Ten compounds from ChEMBL document CHEMBL1777782, “Indole 5-carboxamide Thumb Pocket I inhibitors of HCV NS5B polymerase with nanomolar potency in cell-based subgenomic replicons (part 2): central amino acid linker and right-hand-side SAR studies” (Bioorg Med Chem Lett, 2011) can be followed below.

A short description of one series: physchem. The conditions noted are these: phosphate buffer, pH 7.2.
Series [1] can be described thus: Permeability across apical to basolateral side in human Caco2 cells. The following applies: Caco-2. A general note: Caco-2 cells form a polarised layer with tight junctions and transporters.
The subject of the next series is Hepatitis C virus. In words: Antiviral activity against Hepatitis C virus genotype 1b infected in human Huh-7 cells assessed as inhibition of viral replication after 72 hrs. Type of series: functional, organism-based, Hepacivirus hominis. The conditions noted are these: Huh-7, 72 h.
Series [2] can be described thus: Selectivity ratio for mammalian DNA-dependent RNA polymerase II to HCV 1b NS5B RNA dependent RNA polymerase.
A short description of series [3]: Cmax in overnight-fasted Sprague-Dawley rat at 10, mg/kg, po administered by oral gavage. The following applies: in vivo. Type of series: ADME, organism-based.
The nature of series [4]: Half life in human liver microsomes at 10 uM. (Microsomes from liver hold many membrane-bound enzymes, among them those of drug oxidation.)
Series [5] can be described thus: Inhibition of HCV 1b NS5B RNA dependent RNA polymerase by scintillation proximity assay. On the set-up: species or system Hepacivirus hominis. In general terms: SPA uses beads or plates that emit light when radiolabelled molecules are held near them.
A short description of series [6]: Half life in rat liver microsomes at 10 uM. Format: ADME, Microsome.
Series [7] in a line: Selectivity ratio for polio virus RNA-dependent RNA polymerase to HCV 1b NS5B RNA dependent RNA polymerase.
A short description of series [8]: Tmax in overnight-fasted Sprague-Dawley rat at 10, mg/kg, po administered by oral gavage. Format: ADME, organism-based. The conditions noted are these: in vivo.
A short description of series [9]: AUC in overnight-fasted Sprague-Dawley rat at 10, mg/kg, po administered by oral gavage. Type of series: ADME, organism-based. The conditions noted are these: plasma.
Series [10] in a line: Mean retention time in overnight-fasted Sprague-Dawley rat at 10, mg/kg, po administered by oral gavage. Type of series: ADME, organism-based. The conditions noted are these: in vivo.

pEC50, pIC50: −log10 of the molar value. In brackets after ≈: the same amount, converted by molar mass.

With `CN1CCC(NC(=O)c2ccc3c(C4CCCCC4)c(-c4ccccn4)n(C)c3c2)(C(=O)Nc2ccc(/C=C/C(=O)O)cc2)CC1`, in “physchem”, the solubility (thermodynamic) at 24 h came to 22 µg/mL (≈ 35.5 µM). Also, in series [1], the apparent permeability from apical to basolateral (Papp A→B) was 0.6 ×10⁻⁶ cm/s. Also, the pEC50 with Hepatitis C virus was 7.22. Further, the Ratio in series [2] and in series [7] was over 150 each time. In [3], the Cmax was under 100 nM. Further, the half-life at 10 µM is 148 min in series [4] (liver microsomes) and 34 min in [6]. The compound further had a pIC50 in [5] of 8.00.

Turning to `Cn1c(-c2ccccn2)c(C2CCCCC2)c2ccc(C(=O)NC(C)(C)C(=O)Nc3ccc(/C=C/C(=O)O)cc3)cc21`, in series [8], the Tmax was 15 min.

In turn, `CN1CC[C@@](NC(=O)c2ccc3c(C4CCCCC4)c(-c4ccccn4)n(C)c3c2)(C(=O)Nc2ccc(/C=C/C(=O)O)cc2)C1` showed a solubility (thermodynamic) at 24 h in the series “physchem” of 15 µg/mL (≈ 24.8 µM). The Tmax in series [8] was determined as 30 min. This compound had a Papp A→B in series [1] of 8.1 ×10⁻⁶ cm/s. Also, the pEC50 in the series with Hepatitis C virus is 7.47. Besides, the Ratio in series [2] and in [7] was over 150 each time. In series [3], the highest level (Cmax) was 320 nM. Also, the values for the half-life at 10 µM in series [4] (microsomes) and in [6] were 456 min and 18 min, respectively. The compound also gave an area under the curve (AUC) in series [9] of 0.81 µM·h. Further, the pIC50 in series [5] is 7.68. This compound yielded an MRT in series [10] of 228 min.

Regarding `Cn1c(-c2ccccn2)c(C2CCCCC2)c2ccc(C(=O)NC3(C(=O)Nc4ccc(/C=C/C(=O)O)cc4)CCC3)cc21`, the thermodynamic solubility at 24 h in “physchem” worked out at 6 µg/mL (≈ 10.4 µM). The Tmax in series [8] was 30 min. The same compound came in with an apparent permeability from apical to basolateral (Papp A→B) in series [1] of 39 ×10⁻⁶ cm/s. Further, the pEC50 with Hepatitis C virus was 7.37. Moreover, the Ratio in [2] and in [7] was over 150 each time. This compound had a Cmax in [3] of 290 nM. The half-life at 10 µM in [4] (microsomes) was 50 min; in series [6], 17 min. In [9], this compound had an AUC of 0.35 µM·h. For the same compound, the pIC50 in [5] was 7.28.

In turn, `Cn1c(-c2ccccn2)c(C2CCCCC2)c2ccc(C(=O)NC3(C(=O)Nc4ccc(C(=O)O)cc4)CCC3)cc21` registered a solubility (thermodynamic) at 24 h in “physchem” of 336 µg/mL (≈ 610 µM). The compound further returned an apparent permeability from apical to basolateral (Papp A→B) in series [1] of 9.7 ×10⁻⁶ cm/s. In addition, the pEC50 with Hepatitis C virus is 6.96. Also, the Ratio in [2] and in series [7] was over 150 throughout. Also, the peak level in [3] (Cmax) was 500 nM. Also, the results for the half-life at 10 µM in series [4] (microsomes) and in series [6] were 21 min and 9 min, respectively. In series [5], this compound gave a pIC50 of 7.03.

In the series “physchem”, `Cn1c(-c2ccccn2)c(C2CCCCC2)c2ccc(C(=O)NC(C)(C)C(=O)Nc3ccc(CCC(=O)O)cc3)cc21` returned a thermodynamic solubility at 24 h of 244 µg/mL (≈ 431 µM). Besides, the Tmax in series [8] came out at 30 min. In series [1], this compound registered a Papp A→B of 12.7 ×10⁻⁶ cm/s. Besides, in the series with Hepatitis C virus, the pEC50 is 6.57. Moreover, the Ratio in series [2] and in [7] was over 150 in each case. Moreover, the highest level in [3] (Cmax) was 630 nM. Moreover, the half-life at 10 µM in [4] (liver microsomes) stood at 63 min. In addition, in series [9], the AUC was determined as 0.81 µM·h. Besides, in series [5], the pIC50 was 6.88. The compound further had an MRT in series [10] of 102 min.

Consider `Cn1c(-c2ccccn2)c(C2CCCCC2)c2ccc(C(=O)N[C@@]3(C(=O)Nc4ccc(/C=C/C(=O)O)cc4)CCCNC3)cc21`, for which the solubility (thermodynamic) at 24 h in the series “physchem” was found to be 22 µg/mL (≈ 36.3 µM). The Papp A→B in series [1] was determined as 0.6 ×10⁻⁶ cm/s. Besides, the pEC50 in the series on Hepatitis C virus was 7.70. The Ratio in series [2] and in [7] was over 150 each time. The compound also registered a peak concentration (Cmax) in [3] of under 100 nM. The half-life at 10 µM in [4] (liver microsomes) worked out at 84 min; in series [6] it was 17 min. For the same compound, in series [5], the pIC50 is 7.96.

In the series “physchem”, `Cc1c(C(=O)O)sc2ccc(NC(=O)C3(NC(=O)c4ccc5c(C6CCCCC6)c(-c6ccccn6)n(C)c5c4)CCC3)cc12` registered a thermodynamic solubility at 24 h of 112 µg/mL (≈ 180 µM). The Papp A→B in [1] was determined as 0.6 ×10⁻⁶ cm/s. The pEC50 in the series with Hepatitis C virus was 7.17. Besides, the Ratio in series [2] and in series [7] was over 150 in each case. In series [4] (liver microsomes), the half-life at 10 µM came out at 79 min. The compound further gave a pIC50 in [5] of 6.91.

For the compound `Cn1c(-c2ccccn2)c(C2CCCCC2)c2ccc(C(=O)NC3(C(=O)Nc4ccc(/C=C/C(=O)O)cc4)CCOCC3)cc21`, in “physchem”, the solubility (thermodynamic) at 24 h turned out to be 15 µg/mL (≈ 24.7 µM). Also, the Papp A→B in [1] was 5.7 ×10⁻⁶ cm/s. The pEC50 with Hepatitis C virus was 6.77. Besides, the Ratio in series [2] and in [7] was over 150 each time. In series [4] (liver microsomes), this compound came in with a half-life at 10 µM of 41 min. In [5], this compound gave a pIC50 of 7.17.

`Cn1c(-c2ccccn2)c(C2CCCCC2)c2ccc(C(=O)NC(C)(C)C(=O)Nc3ccc4sc(C(=O)O)cc4c3)cc21` registered a solubility (thermodynamic) at 24 h in the series “physchem” of 468 µg/mL (≈ 787 µM). The compound also came in with a Papp A→B in series [1] of 0.4 ×10⁻⁶ cm/s. Besides, the pEC50 with Hepatitis C virus was 7.06. Also, the Ratio in [2] and in series [7] was over 150 throughout. The compound further yielded a half-life at 10 µM in [4] (liver microsomes) of 49 min. Besides, the pIC50 in [5] was 7.64.
